Laboratory results reported in ChEMBL document CHEMBL5291721, “A preclinical secondary pharmacology resource illuminates target-adverse drug reaction associations of marketed drugs” (Nat Commun, 2023).

Assays:
[1] = biological target: Gamma-aminobutyric acid receptor subunit alpha-1 (Rattus norvegicus, UniProt P62813); assay type: functional
[2] = biological target: T1, Alpha-2C adrenergic receptor (Homo sapiens, UniProt P18825); assay type: functional
T1 sequence (P18825 whole entry): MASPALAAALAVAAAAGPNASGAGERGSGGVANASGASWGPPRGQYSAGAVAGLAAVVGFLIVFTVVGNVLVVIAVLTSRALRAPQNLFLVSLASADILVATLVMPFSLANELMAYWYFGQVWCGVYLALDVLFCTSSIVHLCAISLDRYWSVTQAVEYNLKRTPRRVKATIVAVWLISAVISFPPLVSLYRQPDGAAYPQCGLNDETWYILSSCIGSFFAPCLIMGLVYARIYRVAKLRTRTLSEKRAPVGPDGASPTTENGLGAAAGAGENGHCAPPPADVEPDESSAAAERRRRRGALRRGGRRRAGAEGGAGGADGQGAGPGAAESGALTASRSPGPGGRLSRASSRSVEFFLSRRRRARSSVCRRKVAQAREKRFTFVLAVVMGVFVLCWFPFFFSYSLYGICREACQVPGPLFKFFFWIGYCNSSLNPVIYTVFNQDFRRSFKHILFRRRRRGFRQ

[3] = biological target: T2, Adenosine receptor A1 (Homo sapiens, UniProt P30542)
T2 sequence (P30542 whole entry): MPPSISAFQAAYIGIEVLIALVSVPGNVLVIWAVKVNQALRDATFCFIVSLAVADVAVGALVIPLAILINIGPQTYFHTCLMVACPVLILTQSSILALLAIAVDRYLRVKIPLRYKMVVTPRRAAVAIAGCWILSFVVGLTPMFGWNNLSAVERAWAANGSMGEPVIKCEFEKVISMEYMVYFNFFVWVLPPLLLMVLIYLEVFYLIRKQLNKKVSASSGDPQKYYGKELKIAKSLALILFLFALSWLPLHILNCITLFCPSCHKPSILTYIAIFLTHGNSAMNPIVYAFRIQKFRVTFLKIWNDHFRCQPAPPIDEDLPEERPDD

[4] = biological target: T3, Equilibrative nucleoside transporter 1 (Homo sapiens, UniProt Q99808)
T3 sequence (Q99808 whole entry): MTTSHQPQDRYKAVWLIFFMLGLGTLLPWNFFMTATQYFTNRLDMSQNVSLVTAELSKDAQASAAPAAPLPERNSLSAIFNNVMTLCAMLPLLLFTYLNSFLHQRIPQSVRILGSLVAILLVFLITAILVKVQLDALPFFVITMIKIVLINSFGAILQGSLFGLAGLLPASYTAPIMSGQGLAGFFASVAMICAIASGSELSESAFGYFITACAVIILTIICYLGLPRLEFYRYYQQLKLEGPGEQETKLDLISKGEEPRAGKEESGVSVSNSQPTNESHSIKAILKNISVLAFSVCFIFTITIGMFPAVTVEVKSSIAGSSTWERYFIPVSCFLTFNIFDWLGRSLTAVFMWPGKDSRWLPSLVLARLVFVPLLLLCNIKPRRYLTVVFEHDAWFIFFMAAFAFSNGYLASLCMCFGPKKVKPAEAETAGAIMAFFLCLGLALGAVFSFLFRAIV

[5] = biological target: 5-hydroxytryptamine receptor 2B (Homo sapiens, UniProt P41595); assay type: functional, cell-based
5-hydroxytryptamine receptor 2B, sequence (P41595 whole entry): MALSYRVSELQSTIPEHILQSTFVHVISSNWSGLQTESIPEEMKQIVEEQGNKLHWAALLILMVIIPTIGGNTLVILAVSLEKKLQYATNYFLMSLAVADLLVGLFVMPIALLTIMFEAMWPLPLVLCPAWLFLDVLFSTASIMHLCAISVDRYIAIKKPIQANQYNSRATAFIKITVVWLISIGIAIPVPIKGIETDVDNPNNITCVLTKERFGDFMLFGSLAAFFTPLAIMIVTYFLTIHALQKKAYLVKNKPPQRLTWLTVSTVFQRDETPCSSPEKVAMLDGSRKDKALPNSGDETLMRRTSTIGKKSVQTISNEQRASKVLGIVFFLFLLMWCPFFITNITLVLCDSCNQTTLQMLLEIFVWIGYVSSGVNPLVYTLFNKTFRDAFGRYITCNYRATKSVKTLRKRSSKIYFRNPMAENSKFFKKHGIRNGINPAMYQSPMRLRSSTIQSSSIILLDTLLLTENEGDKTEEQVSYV

[6] = biological target: 3',5'-cyclic-AMP phosphodiesterase 4D (Homo sapiens, UniProt Q08499); assay type: functional
3',5'-cyclic-AMP phosphodiesterase 4D, sequence (Q08499 whole entry): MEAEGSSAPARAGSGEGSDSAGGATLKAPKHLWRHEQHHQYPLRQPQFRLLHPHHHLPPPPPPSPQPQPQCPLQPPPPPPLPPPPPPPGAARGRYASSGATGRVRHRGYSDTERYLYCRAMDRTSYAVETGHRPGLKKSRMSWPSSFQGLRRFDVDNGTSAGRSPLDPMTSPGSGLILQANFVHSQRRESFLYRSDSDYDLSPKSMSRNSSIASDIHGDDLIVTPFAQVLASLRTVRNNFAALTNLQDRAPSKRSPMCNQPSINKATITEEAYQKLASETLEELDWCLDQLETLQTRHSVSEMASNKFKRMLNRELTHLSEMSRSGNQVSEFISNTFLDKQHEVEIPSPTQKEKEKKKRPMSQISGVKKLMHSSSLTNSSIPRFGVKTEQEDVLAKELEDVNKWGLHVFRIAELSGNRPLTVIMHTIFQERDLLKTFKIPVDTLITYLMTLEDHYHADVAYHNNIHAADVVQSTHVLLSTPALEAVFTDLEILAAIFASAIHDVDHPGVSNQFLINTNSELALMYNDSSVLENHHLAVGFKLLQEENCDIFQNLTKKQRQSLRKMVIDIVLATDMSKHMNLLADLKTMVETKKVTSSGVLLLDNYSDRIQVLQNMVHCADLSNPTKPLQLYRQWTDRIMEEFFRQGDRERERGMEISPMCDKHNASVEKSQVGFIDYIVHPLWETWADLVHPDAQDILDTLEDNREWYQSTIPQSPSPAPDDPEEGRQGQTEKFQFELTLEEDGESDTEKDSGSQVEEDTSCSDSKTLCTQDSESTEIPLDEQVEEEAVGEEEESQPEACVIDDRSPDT

[7] = biological target: T4, Alpha-2A adrenergic receptor (Homo sapiens, UniProt P08913); assay type: functional, cell-based
T4 sequence (P08913 whole entry): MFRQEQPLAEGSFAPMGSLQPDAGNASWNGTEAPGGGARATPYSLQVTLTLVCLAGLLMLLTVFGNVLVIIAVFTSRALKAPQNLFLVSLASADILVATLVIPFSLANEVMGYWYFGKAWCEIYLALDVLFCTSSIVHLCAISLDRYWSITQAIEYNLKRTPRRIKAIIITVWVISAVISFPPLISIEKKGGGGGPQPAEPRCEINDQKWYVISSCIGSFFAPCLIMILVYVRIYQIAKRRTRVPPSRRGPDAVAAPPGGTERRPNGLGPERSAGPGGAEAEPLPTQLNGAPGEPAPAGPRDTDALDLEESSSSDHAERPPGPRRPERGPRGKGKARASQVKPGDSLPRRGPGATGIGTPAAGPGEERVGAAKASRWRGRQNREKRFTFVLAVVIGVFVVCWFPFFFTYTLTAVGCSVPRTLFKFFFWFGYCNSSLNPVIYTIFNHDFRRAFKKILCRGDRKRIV

[8] = biological target: T5, Prostaglandin G/H synthase 1 (Rattus norvegicus, UniProt Q63921); assay type: functional
T5 sequence (Q63921 whole entry): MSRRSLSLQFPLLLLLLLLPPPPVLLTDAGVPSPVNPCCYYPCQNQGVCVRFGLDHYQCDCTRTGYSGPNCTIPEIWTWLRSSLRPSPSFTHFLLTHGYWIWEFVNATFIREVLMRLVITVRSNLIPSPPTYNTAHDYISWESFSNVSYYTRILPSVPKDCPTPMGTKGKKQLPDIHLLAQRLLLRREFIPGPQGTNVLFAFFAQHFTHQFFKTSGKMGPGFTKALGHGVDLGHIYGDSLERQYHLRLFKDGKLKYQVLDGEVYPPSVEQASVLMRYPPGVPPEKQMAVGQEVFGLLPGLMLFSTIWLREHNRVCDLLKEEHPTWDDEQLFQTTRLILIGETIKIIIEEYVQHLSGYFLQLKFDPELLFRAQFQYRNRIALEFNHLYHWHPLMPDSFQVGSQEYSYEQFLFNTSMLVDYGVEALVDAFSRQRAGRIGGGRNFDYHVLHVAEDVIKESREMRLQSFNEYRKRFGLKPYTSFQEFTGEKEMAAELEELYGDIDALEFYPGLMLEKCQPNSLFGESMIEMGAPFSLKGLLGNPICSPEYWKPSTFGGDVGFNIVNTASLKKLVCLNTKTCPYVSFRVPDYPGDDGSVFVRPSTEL

[9] = biological target: cGMP-inhibited 3',5'-cyclic phosphodiesterase 3A (Homo sapiens, UniProt Q14432); assay type: functional
cGMP-inhibited 3',5'-cyclic phosphodiesterase 3A, sequence (Q14432 whole entry): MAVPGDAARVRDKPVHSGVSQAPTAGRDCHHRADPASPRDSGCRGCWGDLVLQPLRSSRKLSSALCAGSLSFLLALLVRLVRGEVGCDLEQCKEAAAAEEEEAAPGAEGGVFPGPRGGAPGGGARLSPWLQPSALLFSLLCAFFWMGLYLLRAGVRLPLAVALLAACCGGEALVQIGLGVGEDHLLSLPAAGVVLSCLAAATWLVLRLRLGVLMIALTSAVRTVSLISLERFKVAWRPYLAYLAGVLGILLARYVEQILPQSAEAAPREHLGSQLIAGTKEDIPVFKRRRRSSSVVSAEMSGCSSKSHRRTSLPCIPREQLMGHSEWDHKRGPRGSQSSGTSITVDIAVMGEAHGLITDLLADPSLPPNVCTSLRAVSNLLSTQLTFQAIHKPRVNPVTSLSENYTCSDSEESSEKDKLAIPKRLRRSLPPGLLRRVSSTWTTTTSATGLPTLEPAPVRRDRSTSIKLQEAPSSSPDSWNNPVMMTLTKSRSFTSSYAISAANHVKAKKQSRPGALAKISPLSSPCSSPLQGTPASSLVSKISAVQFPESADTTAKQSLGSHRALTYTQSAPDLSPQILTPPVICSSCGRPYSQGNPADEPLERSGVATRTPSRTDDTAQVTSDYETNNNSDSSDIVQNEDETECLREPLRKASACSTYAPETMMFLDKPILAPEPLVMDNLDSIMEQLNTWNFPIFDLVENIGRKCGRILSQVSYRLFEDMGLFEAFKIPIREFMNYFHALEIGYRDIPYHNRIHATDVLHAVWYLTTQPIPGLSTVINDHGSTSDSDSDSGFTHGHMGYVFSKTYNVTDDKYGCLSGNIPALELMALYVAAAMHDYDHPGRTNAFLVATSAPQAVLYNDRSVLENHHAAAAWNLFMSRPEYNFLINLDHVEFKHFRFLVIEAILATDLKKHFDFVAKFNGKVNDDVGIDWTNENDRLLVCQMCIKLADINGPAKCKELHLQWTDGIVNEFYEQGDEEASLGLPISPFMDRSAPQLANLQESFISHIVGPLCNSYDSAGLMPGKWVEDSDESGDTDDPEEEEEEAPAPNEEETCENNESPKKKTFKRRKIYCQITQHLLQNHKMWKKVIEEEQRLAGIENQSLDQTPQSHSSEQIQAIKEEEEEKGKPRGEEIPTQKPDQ
Also: assay procedure not described here.

Gamma-aminobutyric acid receptor subunit alpha-1, sequence (P62813 whole entry): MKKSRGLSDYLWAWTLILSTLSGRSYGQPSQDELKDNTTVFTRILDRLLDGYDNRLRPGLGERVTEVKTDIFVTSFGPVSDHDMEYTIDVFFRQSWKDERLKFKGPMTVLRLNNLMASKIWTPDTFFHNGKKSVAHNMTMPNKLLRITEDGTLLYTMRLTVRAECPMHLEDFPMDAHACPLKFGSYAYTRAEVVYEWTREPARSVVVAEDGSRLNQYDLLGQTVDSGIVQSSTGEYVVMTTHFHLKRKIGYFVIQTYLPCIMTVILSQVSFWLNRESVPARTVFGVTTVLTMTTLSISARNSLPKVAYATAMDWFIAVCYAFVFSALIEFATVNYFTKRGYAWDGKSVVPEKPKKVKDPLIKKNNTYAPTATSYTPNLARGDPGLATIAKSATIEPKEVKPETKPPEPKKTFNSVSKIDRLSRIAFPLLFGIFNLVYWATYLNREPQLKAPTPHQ

CCOCC(O)COc1ccc(NC(=O)CC[S+](C)C)cc1 (stereo not given)
AC50 [1]: > 30 µM
AC50 [2]: > 30 µM
AC50 [3]: > 30 µM
AC50 [4]: > 30 µM
AC50 [5]: > 30 µM
AC50 [6]: > 30 µM
AC50 [7]: > 30 µM
AC50 [8]: > 30 µM
AC50 [9]: > 30 µM

CCOC(=O)[C@H](CCc1ccccc1)N[C@@H](C)C(=O)N1Cc2ccccc2C[C@H]1C(=O)O
AC50 [1]: > 10 µM
AC50 [2]: > 10 µM
AC50 [3]: > 30 µM
AC50 [4]: > 30 µM
AC50 [5]: > 10 µM
AC50 [6]: > 10 µM
AC50 [7]: > 10 µM
AC50 [8]: > 30 µM
AC50 [9]: > 10 µM

CCC[C@@]1(CCc2ccccc2)CC(O)=C([C@H](CC)c2cccc(NS(=O)(=O)c3ccc(C(F)(F)F)cn3)c2)C(=O)O1
AC50 [1]: > 30 µM
AC50 [2]: 25 µM
AC50 [3]: > 30 µM
AC50 [4]: > 30 µM
AC50 [5]: > 30 µM
AC50 [6]: 29 µM
AC50 [7]: 8.6 µM
AC50 [8]: 5.8 µM
AC50 [9]: > 30 µM

C=CC1=C(C(=O)O)N2C(=O)[C@@H](NC(=O)/C(=N\O)c3csc(N)n3)[C@H]2SC1
AC50 [1]: > 10 µM
AC50 [2]: > 10 µM
AC50 [3]: > 30 µM
AC50 [4]: > 30 µM
AC50 [5]: > 10 µM
AC50 [6]: > 30 µM
AC50 [7]: > 10 µM
AC50 [8]: > 30 µM
AC50 [9]: > 30 µM

CC#CC(=O)N1CCC[C@H]1c1nc(-c2ccc(C(=O)Nc3ccccn3)cc2)c2c(N)nccn12 [ACALABRUTINIB]
AC50 [8]: > 30 µM

O=C(O)COC(=O)Cc1ccccc1Nc1c(Cl)cccc1Cl [ACECLOFENAC]
AC50 [1]: > 10 µM
AC50 [2]: > 10 µM
AC50 [3]: > 30 µM
AC50 [4]: > 30 µM
AC50 [5]: > 10 µM
AC50 [6]: > 30 µM
AC50 [7]: > 10 µM
AC50 [8]: > 30 µM
AC50 [9]: > 30 µM

CC[N+](CC)(CCNC(=O)C(=O)NCC[N+](CC)(CC)Cc1ccccc1Cl)Cc1ccccc1Cl [AMBENONIUM]
AC50 [1]: > 30 µM
AC50 [2]: 2.5 µM
AC50 [3]: > 30 µM
AC50 [5]: > 30 µM
AC50 [6]: > 30 µM
AC50 [7]: > 30 µM
AC50 [8]: > 30 µM
AC50 [9]: > 30 µM

NCCCNCCSP(=O)(O)O [AMIFOSTINE]
AC50 [1]: > 30 µM
AC50 [2]: > 30 µM
AC50 [3]: > 30 µM
AC50 [5]: > 30 µM
AC50 [6]: > 30 µM
AC50 [7]: > 30 µM
AC50 [8]: > 30 µM
AC50 [9]: > 30 µM

CN(C)CCC=C1c2ccccc2CCc2ccccc21 [AMITRIPTYLINE]
AC50 [1]: > 10 µM
AC50 [2]: 0.29 µM
AC50 [3]: > 30 µM
AC50 [4]: > 30 µM
AC50 [6]: > 30 µM
AC50 [7]: 9.1 µM
AC50 [8]: > 30 µM
AC50 [9]: > 30 µM

CN1CC2c3ccccc3Oc3ccc(Cl)cc3C2C1 (stereo not given) [ASENAPINE]
AC50 [2]: 0.3 µM
AC50 [3]: > 30 µM
AC50 [4]: > 30 µM
AC50 [5]: > 30 µM
AC50 [6]: > 30 µM
AC50 [7]: 0.079 µM
AC50 [8]: > 30 µM
AC50 [9]: > 30 µM

CC(=O)Oc1ccccc1C(=O)O [ASPIRIN]
AC50 [1]: > 10 µM
AC50 [2]: > 10 µM
AC50 [3]: > 30 µM
AC50 [4]: > 30 µM
AC50 [5]: > 10 µM
AC50 [6]: > 30 µM
AC50 [7]: > 10 µM
AC50 [9]: > 30 µM

CC(C)NCC(O)COc1ccc(CC(N)=O)cc1 (stereo not given) [ATENOLOL]
AC50 [2]: > 30 µM
AC50 [3]: > 30 µM
AC50 [4]: > 30 µM
AC50 [6]: > 30 µM
AC50 [7]: > 30 µM
AC50 [8]: > 30 µM
AC50 [9]: > 30 µM

O=C(Cc1cccs1)N[C@@H]1C(=O)N2C(C(=O)[O-])=C(C[n+]3ccccc3)CS[C@H]12 [CEPHALORIDINE]
AC50 [1]: > 30 µM
AC50 [2]: > 30 µM
AC50 [5]: > 30 µM
AC50 [6]: > 30 µM
AC50 [7]: > 30 µM
AC50 [9]: > 30 µM

CC(C)/N=c1\cc2n(-c3ccc(Cl)cc3)c3ccccc3nc-2cc1Nc1ccc(Cl)cc1 [CLOFAZIMINE]
AC50 [1]: 20 µM
AC50 [2]: 13 µM
AC50 [3]: > 30 µM
AC50 [5]: > 30 µM
AC50 [6]: 17.5 µM
AC50 [7]: > 30 µM
AC50 [8]: > 30 µM
AC50 [9]: > 30 µM

O=c1[nH]cc(F)c(=O)[nH]1 [FLUOROURACIL]
AC50 [3]: > 30 µM
AC50 [4]: > 30 µM
AC50 [8]: > 30 µM

CCOC(=O)Nc1ccc(NCc2ccc(F)cc2)nc1N [FLUPIRTINE]
AC50 [1]: > 30 µM
AC50 [2]: > 30 µM
AC50 [3]: > 30 µM
AC50 [4]: > 30 µM
AC50 [5]: > 30 µM
AC50 [6]: > 30 µM
AC50 [7]: 23 µM
AC50 [9]: > 30 µM

CCN(CCO)CCCC(C)Nc1ccnc2cc(Cl)ccc12 (stereo not given) [HYDROXYCHLOROQUINE]
AC50 [1]: > 10 µM
AC50 [3]: > 10 µM
AC50 [4]: > 10 µM
AC50 [5]: > 10 µM
AC50 [6]: > 30 µM
AC50 [7]: > 10 µM
AC50 [8]: > 10 µM
AC50 [9]: > 30 µM

C[C@@H](O)[C@H]1C(=O)N2C(C(=O)O)=C(SCCN=CN)C[C@H]12 [IMIPENEM ANHYDROUS]
AC50 [2]: > 300 µM
AC50 [3]: > 300 µM
AC50 [4]: > 300 µM
AC50 [5]: > 300 µM
AC50 [6]: > 300 µM
AC50 [7]: > 300 µM
AC50 [8]: > 300 µM
AC50 [9]: > 300 µM

CC(=O)NC[C@H]1CN(c2ccc(N3CCOCC3)c(F)c2)C(=O)O1 [LINEZOLID]
AC50 [1]: > 30 µM
AC50 [2]: > 30 µM
AC50 [3]: > 30 µM
AC50 [4]: > 30 µM
AC50 [6]: > 30 µM
AC50 [7]: > 30 µM
AC50 [8]: > 30 µM
AC50 [9]: > 30 µM

O=C1[C@@H]2[C@H]3CC[C@H](C3)[C@@H]2C(=O)N1C[C@@H]1CCCC[C@H]1CN1CCN(c2nsc3ccccc23)CC1 [LURASIDONE]
AC50 [1]: > 30 µM
AC50 [2]: 1.1 µM
AC50 [3]: > 30 µM
AC50 [4]: > 30 µM
AC50 [5]: > 30 µM
AC50 [6]: > 30 µM
AC50 [8]: > 30 µM
AC50 [9]: > 30 µM

CS(=O)(=O)Nc1ccc([N+](=O)[O-])cc1Oc1ccccc1 [NIMESULIDE]
AC50 [1]: > 30 µM
AC50 [2]: > 30 µM
AC50 [4]: 15 µM
AC50 [5]: > 30 µM
AC50 [6]: > 30 µM
AC50 [7]: > 30 µM
AC50 [8]: > 30 µM
AC50 [9]: > 30 µM

C#CCN(C)Cc1ccccc1 [PARGYLINE]
AC50 [1]: > 30 µM
AC50 [2]: > 30 µM
AC50 [5]: > 30 µM
AC50 [6]: > 30 µM
AC50 [7]: > 30 µM
AC50 [9]: > 30 µM

Cc1ccc(C(C)C)c(O)c1 [THYMOL]
AC50 [8]: 120 µM
